In the OPERA property sets (Mansouri et al. 2018):

SMILES | logP
NC1(C(=O)O)CCCC1 | -2.28
O=C(O)C1CCNCC1 | -3.05
CN(C)CC(=O)O | -2.91
CCC(N)C(=O)O (stereo not drawn) | -2.54
NCCCCCCCC(=O)O | -2.55
O=C(O)C1CCCCN1 (stereo not drawn) | -2.31
O=C(O)C1CCN1 (stereo not drawn) | -2.84
O=C(O)C1CCCNC1 (stereo not drawn) | -2.89
NC1(C(=O)O)CCCCC1 | -1.87
NC1(C(=O)O)CC1 | -2.78
NCCCCCCC(=O)O | -3.03
NCCC(=O)O | -3.05
O=C(O)CCN1CCCCC1 | -2.45
